In the NIST ThermoML archive (doi:10.1021/je200721d):
± gives the expanded uncertainty stated by the source.

Assay: xn = mol fraction of the nth substance listed
Details: Liquid, Vibrating tube method

CCCCCCCCCC [decane] + CCCCCC
Details	mass density [kg/m3]
352.99 K, 19000 kPa, x2 = 0.7524	655.43 ± 0.45
352.99 K, 20000 kPa, x2 = 0.0456	701.21 ± 0.41
352.99 K, 20000 kPa, x2 = 0.7524	656.5 ± 0.46
352.99 K, 21000 kPa, x2 = 0.0456	702.11 ± 0.42
352.99 K, 21000 kPa, x2 = 0.7524	657.54 ± 0.47
352.99 K, 22000 kPa, x2 = 0.0456	702.98 ± 0.42
352.99 K, 22000 kPa, x2 = 0.7524	658.56 ± 0.48
352.99 K, 23000 kPa, x2 = 0.0456	703.83 ± 0.43
352.99 K, 23000 kPa, x2 = 0.7524	659.55 ± 0.49
352.99 K, 24000 kPa, x2 = 0.0456	704.67 ± 0.44
352.99 K, 24000 kPa, x2 = 0.7524	660.56 ± 0.5
352.99 K, 25000 kPa, x2 = 0.0456	705.49 ± 0.45
352.99 K, 25000 kPa, x2 = 0.7524	661.49 ± 0.51
353 K, 1000 kPa, x2 = 0.2185	673.09 ± 0.26
353 K, 2000 kPa, x2 = 0.2185	674.25 ± 0.27
353 K, 3000 kPa, x2 = 0.2185	675.39 ± 0.28
353 K, 4000 kPa, x2 = 0.2185	676.51 ± 0.28
353 K, 5000 kPa, x2 = 0.2185	677.65 ± 0.29
353 K, 6000 kPa, x2 = 0.2185	678.75 ± 0.3
353 K, 7000 kPa, x2 = 0.2185	679.82 ± 0.31
353 K, 8000 kPa, x2 = 0.2185	680.92 ± 0.32
353 K, 9000 kPa, x2 = 0.2185	681.98 ± 0.32
353 K, 10000 kPa, x2 = 0.2185	683.03 ± 0.33
353 K, 11000 kPa, x2 = 0.2185	684.07 ± 0.34
353 K, 12000 kPa, x2 = 0.2185	685.08 ± 0.35
353 K, 13000 kPa, x2 = 0.2185	686.09 ± 0.36
353 K, 14000 kPa, x2 = 0.2185	687.09 ± 0.37
353 K, 15000 kPa, x2 = 0.2185	688.08 ± 0.37
353 K, 16000 kPa, x2 = 0.2185	689.03 ± 0.38
353 K, 17000 kPa, x2 = 0.2185	689.97 ± 0.39
353 K, 18000 kPa, x2 = 0.2185	690.9 ± 0.4
353 K, 19000 kPa, x2 = 0.2185	691.79 ± 0.41
353 K, 20000 kPa, x2 = 0.2185	692.7 ± 0.42
353 K, 21000 kPa, x2 = 0.2185	693.59 ± 0.43
353 K, 22000 kPa, x2 = 0.2185	694.47 ± 0.43
353 K, 23000 kPa, x2 = 0.2185	695.35 ± 0.44
353 K, 24000 kPa, x2 = 0.2185	696.22 ± 0.45
353 K, 25000 kPa, x2 = 0.2185	697.07 ± 0.46
353.01 K, 1000 kPa, x2 = 0.4968	654.56 ± 0.27
353.01 K, 2000 kPa, x2 = 0.4968	655.89 ± 0.28
353.01 K, 3000 kPa, x2 = 0.4968	657.2 ± 0.28
353.01 K, 4000 kPa, x2 = 0.4968	658.52 ± 0.29
353.01 K, 5000 kPa, x2 = 0.4968	659.83 ± 0.3
353.01 K, 6000 kPa, x2 = 0.4968	661.12 ± 0.31
353.01 K, 7000 kPa, x2 = 0.4968	662.3 ± 0.32
353.01 K, 8000 kPa, x2 = 0.4968	663.52 ± 0.33
353.01 K, 9000 kPa, x2 = 0.4968	664.66 ± 0.33
353.01 K, 10000 kPa, x2 = 0.4968	665.8 ± 0.34
353.01 K, 11000 kPa, x2 = 0.4968	666.94 ± 0.35
353.01 K, 12000 kPa, x2 = 0.4968	668.05 ± 0.36
353.01 K, 13000 kPa, x2 = 0.4968	669.13 ± 0.37
353.01 K, 14000 kPa, x2 = 0.4968	670.21 ± 0.38
353.01 K, 15000 kPa, x2 = 0.4968	671.26 ± 0.39
353.01 K, 16000 kPa, x2 = 0.4968	672.3 ± 0.4
353.01 K, 17000 kPa, x2 = 0.4968	673.3 ± 0.41
353.01 K, 18000 kPa, x2 = 0.4968	674.32 ± 0.42
353.01 K, 19000 kPa, x2 = 0.4968	675.27 ± 0.43
353.01 K, 20000 kPa, x2 = 0.4968	676.25 ± 0.43
353.01 K, 21000 kPa, x2 = 0.4968	677.22 ± 0.44
353.01 K, 22000 kPa, x2 = 0.4968	678.15 ± 0.45
353.01 K, 23000 kPa, x2 = 0.4968	679.08 ± 0.46
353.01 K, 24000 kPa, x2 = 0.4968	680 ± 0.47
353.01 K, 25000 kPa, x2 = 0.4968	680.91 ± 0.48
362.59 K, 1000 kPa, x2 = 0.8991	607.57 ± 0.28
362.59 K, 2000 kPa, x2 = 0.8991	609.29 ± 0.29
362.59 K, 3000 kPa, x2 = 0.8991	610.97 ± 0.3
362.59 K, 4000 kPa, x2 = 0.8991	612.62 ± 0.31
362.59 K, 5000 kPa, x2 = 0.8991	614.24 ± 0.32
362.59 K, 6000 kPa, x2 = 0.8991	615.83 ± 0.33
362.59 K, 7000 kPa, x2 = 0.8991	617.37 ± 0.34
362.59 K, 8000 kPa, x2 = 0.8991	618.92 ± 0.35
362.59 K, 9000 kPa, x2 = 0.8991	620.4 ± 0.4
362.59 K, 10000 kPa, x2 = 0.8991	621.89 ± 0.37
362.59 K, 11000 kPa, x2 = 0.8991	623.32 ± 0.38
362.59 K, 12000 kPa, x2 = 0.8991	624.72 ± 0.39
362.59 K, 13000 kPa, x2 = 0.8991	626.12 ± 0.4
362.59 K, 14000 kPa, x2 = 0.8991	627.49 ± 0.41
362.59 K, 15000 kPa, x2 = 0.8991	628.8 ± 0.4
362.59 K, 16000 kPa, x2 = 0.8991	630.11 ± 0.44
362.59 K, 17000 kPa, x2 = 0.8991	631.37 ± 0.45
362.59 K, 18000 kPa, x2 = 0.8991	632.62 ± 0.46
362.59 K, 19000 kPa, x2 = 0.8991	633.83 ± 0.47
362.59 K, 20000 kPa, x2 = 0.8991	635.04 ± 0.48
362.59 K, 21000 kPa, x2 = 0.8991	636.21 ± 0.49
362.59 K, 22000 kPa, x2 = 0.8991	637.35 ± 0.5
362.59 K, 23000 kPa, x2 = 0.8991	638.45 ± 0.51
362.59 K, 24000 kPa, x2 = 0.8991	639.52 ± 0.53
362.59 K, 25000 kPa, x2 = 0.8991	640.65 ± 0.54
362.91 K, 1000 kPa, x2 = 0.0456	674.5 ± 0.26
362.91 K, 2000 kPa, x2 = 0.0456	675.7 ± 0.27
362.91 K, 3000 kPa, x2 = 0.0456	676.88 ± 0.27
362.91 K, 4000 kPa, x2 = 0.0456	678.04 ± 0.28
362.91 K, 5000 kPa, x2 = 0.0456	679.18 ± 0.29
362.91 K, 6000 kPa, x2 = 0.0456	680.32 ± 0.3
